According to patent publication US9149424B2, “Compositions and methods for reducing hepatotoxicity associated with drug administration” (YALE UNIVERSITY, priority 2007, dated 2015):
Entries after “also recorded” stand apart in the source; their conditions may differ.

What was measured:
wild-type mice [1] = test: Acetaminophen (APAP) induced hepatotoxicity, survival over 72 hours; format: in vivo, mouse
Experimental: C57BL/6 mice were purchased from commercial sources. […] These mice have been described previously (39, 40). IL-1β was neutralized in by using the anti-IL-1β antibody from clone B122 (a gift of R. Schreiber, Washington University) at a dose of 0.2 mg/mouse iv twice a day for a total of 48 hours after giving APAP. Control mice received Armenian hamster isotype control antibody. For survival experiments animals were euthanized when they became moribund using criteria of lack of response to stimuli or lack of righting reflex. Animal protocols were approved by the Yale University animal care and use committee. [include references for IPAF−/− (M. Lara-Tejero et al. JEM 2006) and IL-18−/−. Need to add TLR9−/− and TLR3−/−]
(§1) APAP (Sigma, Mo.) solution was made fresh for each experiment in PBS at 20 mg/ml and heated in a water bath to 55° C. to dissolve. APAP was dosed at 500 mg/kg and injected I.P after 15 hrs of starvation. Animals were euthanized by ketamine/xylazine injection at 12 hours for collection of serum, isolation of liver lymphocytes or collection of liver tissue for histology, or they were observed every four hours for 72 hours until they reached criteria for euthanasia (lack of response to stimuli or lack of righting reflex).
(§2) Aspirin (Sigma, Mo.) was made fresh for each experiment. For dosing prior to APAP it was dissolved in single deionized water at 60 mg/l and heated to 42° C. with rapid stirring to dissolve, then rapidly placed in an ice water bath to cool. Aspirin in water was given to the mice 60-72 hours prior to APAP injection. Assuming water consumption of 3-5 ml per day this dose would be equivalent to a 300-500 mg dose in an 80 kg adult human. For co-administration of APAP and aspirin, aspirin was gavaged at a dose of 6 mg/kg in a volume of 100 ul of water immediately after ip injection of APAP. Clopidogrel (Gilead Pharmaceuticals, CA.) was dissolved in PBS at 6 mg/ml and administered by gavage of 100 ul, 30 mg/kg, every 24 hours beginning 48 hours prior and ending 24 hours after APAP injection. Cox-1 inhibitor (SC-560). SC-560 (Cayman chemical, MI) was dissolved at 50 mg/ml in DMSO and further dissolved in PBS in order to gavage a dose of 5 mg/kg in 100 ul.

mice and rats = conditions: aspirin 200-600 mg/kg (dose range toxic to humans); cited from earlier work
pro-IL-18 transcript = test: Quantitative real-time PCR of total liver 12 hours after APAP, pro-IL-18; format: in vivo, mouse; conditions: aspirin pre-treatment in drinking water
Experimental: as §1
(§3) Q-PCR was performed for IL-1β and IL-18 using commercial primer-probe sets (Applied Biosystems, Framingham, Mass.) and the Applied Biosystem 7500 real-time PCR system. Expression of glyceraldehyde 3-phosphate dehydrogenase was used to standardize the samples, and the results were expressed as a ratio compared with untreated HSCs. Quantitative Real-time PCR for mRNA expression of IL-18, IL-1β, TNF-α and IFN-γ. Total mouse liver was obtained 12 hours after APAP and cDNA was prepared. Quantitative real-time PCR (Q-PCR) was performed for IL-18 and IL-1β using commercial primer-probe sets (Applied Biosystems, Calif.) and the Applied Biosystem 7500 real time PCR system. Expression of GAPDH was used to standardize the samples, and the results were expressed as a ratio compared to control.

TNF-α = test: Quantitative real-time PCR of total liver 12 hours after APAP, TNF-α; format: in vivo, mouse; conditions: aspirin pre-treatment
Experimental: as §1, §3

wild-type mice [2] = test: APAP induced hepatotoxicity, liver histology (H&E) at 12 hours; format: in vivo, mouse; conditions: aspirin 60 mg/l in drinking water three days before APAP; 12 hours after APAP
Experimental: as §1
as §2, with “SC-560 (Cayman chemical, MI) was dissolved at 50 mg/ml in DMSO and further dissolved in PBS in order to gavage a dose of 5 mg/kg in 100 ul.” left out

NALP3 inflammasome = test: Uric acid (MSU crystal) peritonitis, Gr-1 positive neutrophils in peritoneal lavage; format: in vivo, mouse; conditions: low dose aspirin (60 mg/l) in drinking water for three days before MSU 3 mg ip; lavage at 3 hours
Experimental: Peritonitis was induced with uric acid crystals as previously described by injecting 3 mg of MSU intraperitoneally per mouse (27). Three hours after injection peritoneal lavage was performed on mice euthanized by isoflurane inhalation. Neutrophil infiltration was evaluated by flow cytometry. The percent of Gr-1 (BD Pharmingen, CA) positive cells was multiplied by the total cell counts.

wild-type mice [3] = test: APAP induced hepatotoxicity, serum ALT at 12 hours; format: in vivo, mouse; conditions: aspirin pre-treatment in drinking water; 12 hrs after APAP; P<0.04
Experimental: as §1
Aspirin (Sigma, Mo.) was made fresh for each experiment. For dosing prior to APAP it was dissolved in single deionized water at 60 mg/l and heated to 42° C. with rapid stirring to dissolve, then rapidly placed in an ice water bath to cool. Aspirin in water was given to the mice 60-72 hours prior to APAP injection. Assuming water consumption of 3-5 ml per day this dose would be equivalent to a 300-500 mg dose in an 80 kg adult human. For co-administration of APAP and aspirin, aspirin was gavaged at a dose of 6 mg/kg in a volume of 100 ul of water immediately after ip injection of APAP. […]
(§4) TLR9 antagonist (ODN2088, 50 microg×2) or PBS, were injected ip into wild-type mice immediately after and at 6 hours after APAP injection and total mouse liver was obtained 12 hours after APAP injection for quantitative Q-PCR for IL-1β. […]

IFN-γ = test: Quantitative real-time PCR of total liver 12 hours after APAP, IFN-γ; format: in vivo, mouse; conditions: aspirin pre-treatment
Experimental: as §1, §3

pro-IL-1β transcript = test: Quantitative real-time PCR of total liver 12 hours after APAP, pro-IL-1β; format: in vivo, mouse; conditions: aspirin pre-treatment in drinking water
Experimental: as §1, §4
as §3, with “Total mouse liver was obtained 12 hours after APAP and cDNA was prepared.” left out, “Expression of GAPDH was used to standardize the samples, and the results were expressed as a ratio compared to control.” left out

IL-1β = test: ELISA for serum IL-1β after APAP; format: in vivo, mouse; conditions: APAP with vs without ASA in drinking water; p<0.02
Experimental: ELISA for serum IL1-β was carried out by standard protocols.

[4] = test system: pro-IL-1β transcript in THP1 cells; test: THP1 cells stimulated with LPS, real-time PCR pro-IL-1β; format: cell-based, human; conditions: THP1 cells incubated overnight with aspirin (1.5 mM, 0.15 mM), then LPS 10 μg/ml 8 hours
Experimental: The human monocytic cell line THP1 was maintained in RPMI with 10% FBS. Stimulation with LPS (Sigma, Mo.) was performed by plating cells at 5×10^5 per 24 well, incubating overnight with aspirin or control media prior to adding LPS at 10 μg/ml for 8 hours.

## COc1ccc(-n2nc(C(F)(F)F)cc2-c2ccc(Cl)cc2)cc1 [SC-560]
wild-type mice [1]; SC-560 5 mg/kg gavage twice daily from 60 hours before to 48 hours after APAP, n=10 each, P<0.97
  protection against APAP toxicity (survival): did not protect

## CC(=O)Oc1ccccc1C(=O)O [aspirin, acetylsalicylic acid]
Mice and rats
  liver injury from APAP: reduce liver injury
  survival from APAP: not improve survival
pro-IL-18 transcript
  increase in pro-IL-18 message by APAP, whole liver: reduced to normal levels
wild-type mice [1]; aspirin 60 mg/l in drinking water 3 days before APAP 500 mg/kg ip, control n=13, aspirin n=17, P<0.02
  survival after APAP: markedly improved survival
wild-type mice [1]; aspirin given concordantly with APAP, 6 mg/kg gavage, control 22%+/−19%, P<0.04
  survival: 43%+/−11%
TNF-α
  expression of TNF-α, whole liver: reduced
wild-type mice [2]
  liver histology (liver injury and hemorrhage): significant reduction in APAP induced liver injury and hemorrhage; also recorded: markedly improved
NALP3 inflammasome
  neutrophil exudates in MSU peritonitis: eightfold reduction
wild-type mice [3]
  serum ALT: significantly lower
IFN-γ
  expression of IFN-γ, whole liver: reduced
pro-IL-1β transcript
  increase in pro-IL-1β message by APAP, whole liver: reduced to normal levels
IL-1β
  serum IL-1β levels: significant reduction
[4]
  LPS induced up-regulation of pro-IL-1β transcript: reduced

## COC(=O)[C@H](c1ccccc1Cl)N1CCc2sccc2C1 [clopidogrel]
wild-type mice [1]; clopidogrel 30 mg/kg gavage every 24 hrs from 48 hours before to 24 hours after APAP, n=15 each, P<0.31
  protection against APAP toxicity (survival): did not protect
